Data: US7902229B2, “Anthranilamide pyridinureas as vascular endothelial growth factor (VEGF) receptor kinase inhibitors” (Bayer Schering Pharma AG, priority 2004, dated 2011)

Tests used:
KDR-Kinase (VEGFR-2) = target: T1, KDR-Kinase (VEGFR-2) (Homo sapiens, UniProt P35968); assay: KDR Kinase Inhibition; assay type: biochemical; settings: GST-kinase domain fusion construct of the KDR kinase; poly(Glu4Tyr) substrate, 32P-ATP, 10 min
T1 construct: GST-kinase domain fusion construct of the KDR kinase; GST
Procedure: Kinase activity was measured with a GST-kinase domain fusion construct of the KDR kinase according to the following protocol to obtain concentration response curves. Components were added into a microtiterplate in the following sequence: 10 μl of inhibitor in threefold final concentration [3% DMSO in buffer (40 mM TrisCl pH 7.5; 1 mM DTT, 1 mM MnCl2, 10 mM MgCl2, 2.5 Promille Polyethyleneglycol 20000)] and 10 μ, of substrate mixture [24 μM ATP, 24 μg/ml poly(Glu4Tyr) in buffer, specific activity approx. 500 cpm/pmol ^32P-[…]ATP]. Reaction was started by adding 10 μl of enzyme preparation diluted appropriately in buffer that contains 10 μM vanadate. After incubation for exactly 10 min the reaction was stopped by adding of 10 μl stop solution (250 mM EDTA). 10 μl of the reaction mixture were transferred to phosphocellulose filters. The filters were washed in 0.1% phosphoric acid, dried before meltilex-scintillator was applied (Wallac, Perkin-Elmer) and the radioactivity was counted.

[1] = target: T2, human Cytochrome P 450 isoenzyme 2C9 (Homo sapiens, UniProt P11712); assay: Cytochrome P450 Inhibition (2C9); assay type: in vitro ADME; settings: baculovirus/insect cell-expressed human isoenzyme, according to Crespi et al.; read-out: IC50 CYP 2C9
T2 construct: host or cells: baculovirus/insect cells
Procedure: (§1) Cytochrome P450 Inhibition
(§2) The Cytochrome P450 isoenzyme inhibition was performed according to the publication of Crespi et al. (Anal. Biochem., 1997, 248, 188-190) with use of the baculovirus/insect cell-expressed, human Cytochrome P 450 isoenzymes (2C9 and 2C19).

[2] = target: T3, human Cytochrome P 450 isoenzyme 2C19 (Homo sapiens, UniProt P33261); assay: Cytochrome P450 Inhibition (2C19); assay type: in vitro ADME; settings: baculovirus/insect cell-expressed human isoenzyme, according to Crespi et al.; read-out: IC50 CYP 2C19
T3 construct: host or cells: baculovirus/insect cells
Procedure: as §1, §2

T2 sequence (P11712 whole entry): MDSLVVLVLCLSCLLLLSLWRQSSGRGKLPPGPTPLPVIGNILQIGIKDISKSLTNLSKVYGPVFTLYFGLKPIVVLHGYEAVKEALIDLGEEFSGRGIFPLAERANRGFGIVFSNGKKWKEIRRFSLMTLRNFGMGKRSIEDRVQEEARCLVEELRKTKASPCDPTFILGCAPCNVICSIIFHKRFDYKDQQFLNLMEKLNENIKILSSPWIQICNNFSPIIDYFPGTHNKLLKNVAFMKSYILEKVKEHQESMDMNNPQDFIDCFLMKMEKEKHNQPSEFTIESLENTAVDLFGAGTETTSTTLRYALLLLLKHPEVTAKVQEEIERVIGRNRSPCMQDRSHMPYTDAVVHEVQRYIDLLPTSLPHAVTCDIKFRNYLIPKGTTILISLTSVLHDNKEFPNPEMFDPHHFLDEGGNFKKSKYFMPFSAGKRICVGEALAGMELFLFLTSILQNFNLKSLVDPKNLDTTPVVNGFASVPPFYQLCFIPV
T3 sequence (P33261 whole entry): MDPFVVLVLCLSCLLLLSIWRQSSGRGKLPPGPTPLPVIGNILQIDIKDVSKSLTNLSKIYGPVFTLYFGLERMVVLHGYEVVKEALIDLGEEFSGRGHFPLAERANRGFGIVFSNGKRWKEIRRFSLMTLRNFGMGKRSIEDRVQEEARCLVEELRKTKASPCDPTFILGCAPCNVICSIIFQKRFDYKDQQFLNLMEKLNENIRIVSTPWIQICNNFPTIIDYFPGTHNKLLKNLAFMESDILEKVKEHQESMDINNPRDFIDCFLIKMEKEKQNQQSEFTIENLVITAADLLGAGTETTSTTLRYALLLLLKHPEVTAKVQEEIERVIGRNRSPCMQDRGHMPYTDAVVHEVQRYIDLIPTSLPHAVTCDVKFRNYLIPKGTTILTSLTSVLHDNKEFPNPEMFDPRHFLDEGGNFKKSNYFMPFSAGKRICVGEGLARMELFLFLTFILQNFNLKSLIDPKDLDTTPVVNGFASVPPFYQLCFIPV
T1 sequence (P35968 834-1162 limits assumed, species assumed): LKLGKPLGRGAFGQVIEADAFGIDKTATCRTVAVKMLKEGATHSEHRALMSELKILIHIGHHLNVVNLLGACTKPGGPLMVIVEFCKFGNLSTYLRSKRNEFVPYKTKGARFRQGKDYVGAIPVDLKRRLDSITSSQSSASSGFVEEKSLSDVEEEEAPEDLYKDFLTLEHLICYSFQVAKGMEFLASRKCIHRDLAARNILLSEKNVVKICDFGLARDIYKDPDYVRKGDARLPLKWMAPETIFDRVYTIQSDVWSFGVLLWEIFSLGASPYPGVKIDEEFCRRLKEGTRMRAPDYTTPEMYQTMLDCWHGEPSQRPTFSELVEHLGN

| SMILES | IC50 (KDR-Kinase (VEGFR-2)) [nM] | IC50 [1] [µM] | IC50 [2] [µM] | melting point [°C] |
| --- | --- | --- | --- | --- |
| CN(C)C(=O)Nc1cc(CNc2ccccc2C(=O)Nc2ccc3cn(C)nc3c2)ccn1 [Example 1.0, 2-{[2-(3,3-dimethyl-ureido)-pyridin-4-ylmethyl]-amino}-N-(2-methyl-2H-indazol-6-yl)-benzamide] | 25 | 6.7 | 19 | 184 |
| CCN(C)C(=O)Nc1cc(CNc2ccccc2C(=O)Nc2ccc3cn(C)nc3c2)ccn1 [Example 1.4, 2-{[2-(3-ethyl-3-methyl-ureido)-pyridin-4-ylmethyl]-amino}-N-(2-methyl-2H-indazol-6-yl)-benzamide] | 24 | 6.6 | 26 | – |
| CN(C)C(=O)Nc1cc(CNc2ccccc2C(=O)Nc2ccc3c(ccc(=O)n3C)c2)ccn1 [Example 2.2, 2-{[2-(3,3-dimethyl-ureido)-pyridin-4-ylmethyl]-amino}-N-(1-methyl-2-oxo-1,2-dihydro-quinolin-6-yl)-benzamide] | 36 | 10 | 6.4 | – |
| CCN(CC)C(=O)Nc1cc(CNc2ccccc2C(=O)Nc2ccc3cn(C)nc3c2)ccn1 [Example 1.1, 2-{[2-(3,3-diethyl-ureido)-pyridin-4-ylmethyl]-amino}-N-(2-methyl-2H-indazol-6-yl)-benzamide] | 35 | 3.8 | 9.9 | – |
